We go through three molecules from ChEMBL document CHEMBL3779783, “Short cationic lipopeptides as effective antibacterial agents: Design, physicochemical properties and biological evaluation” (Bioorg Med Chem, 2016).

In brackets after ≈: the same amount, converted by molar mass. Non-standard residues stand in square brackets, D forms with d. Residues, ends and D or L forms follow the SMILES beside them. ξ: configuration not given here. ξGly(decyl) = CCCCCCCCCCC(N)C(=O)O Bounds are passed on as bounds.

Data set [1] deals with Staphylococcus aureus. The data set is described as follows: Antimicrobial activity against methicillin-resistant Staphylococcus aureus ATCC 43300 after 20 hrs by microdilution assay. The data set is classed as functional. As to conditions: ATCC 43300, 20 h.
The subject of data set [2] is Staphylococcus aureus. In words: Antimicrobial activity against methicillin-susceptible Staphylococcus aureus ATCC 25923 after 20 hrs by microdilution assay. The data set is classed as functional. As to conditions: ATCC 25923, 20 h. For orientation: In broth dilution the organism is exposed to a series of concentrations in liquid medium.
Data set [3] concerns Staphylococcus aureus. In words: Antimicrobial activity against clinical isolates of multi-resistant/methicillin-resistant Staphylococcus aureus after 20 hrs by microdilution assay. The class given is functional.
In data set [4] the test system is Staphylococcus aureus. In words: Antimicrobial activity against glycopeptide-intermediate Staphylococcus aureus NRS17 after 20 hrs by microdilution assay. The class given is functional. The conditions noted are these: NRS17, 20 h.
The subject of data set [5] is Staphylococcus aureus. In words: Antimicrobial activity against glycopeptide-intermediate Staphylococcus aureus NRS1 after 20 hrs by microdilution assay. As to conditions: NRS1, 20 h. The data set is classed as functional.
Data set [6] relates to Staphylococcus aureus. In words: Antimicrobial activity against clinical isolates of methicillin-resistant Staphylococcus aureus after 20 hrs by microdilution assay. The data set is classed as functional.
Data set [7] concerns Staphylococcus aureus. In words: Antimicrobial activity against vancomycin-resistant Staphylococcus aureus NARSA VRS4 after 20 hrs by microdilution assay. As to conditions: NARSA VRS4, 20 h. The data set is classed as functional.
In data set [8] the test system is Staphylococcus aureus. In words: Antimicrobial activity against vancomycin-resistant Staphylococcus aureus NARSA VRS1 after 20 hrs by microdilution assay. The data set is classed as functional. As to conditions: NARSA VRS1, 20 h.
Data set [9] deals with Staphylococcus aureus. In words: Antimicrobial activity against vancomycin-resistant Staphylococcus aureus NARSA VRS10 after 20 hrs by microdilution assay. The class given is functional. The conditions noted are these: NARSA VRS10, 20 h.
For another data set, the system named is Streptococcus pneumoniae. The data set is described as follows: Antimicrobial activity against multidrug resistant Streptococcus pneumoniae ATCC 700677 after 20 hrs by microdilution assay. The class given is functional. The conditions noted are these: ATCC 700677, 20 h.
A further data set deals with Enterococcus faecalis. In words: Antimicrobial activity against clinical isolates of high level vancomycin-resistant Enterococcus faecalis after 20 hrs by microdilution assay. The class given is functional.
A further data set relates to Enterococcus faecium. In words: Antimicrobial activity against multidrug resistant and high level vancomycin resistant Enterococcus faecium ATCC 51559 after 20 hrs by microdilution assay. The class given is functional. The conditions noted are these: ATCC 51559, 20 h.
The next data set deals with Escherichia coli. In words: Antimicrobial activity against Escherichia coli ATCC 25922 after 20 hrs by microdilution assay. The data set is classed as functional.
For data set [10], the system named is Klebsiella pneumoniae. In words: Antimicrobial activity against multidrug resistant Klebsiella pneumoniae ATCC 700603 after 20 hrs by microdilution assay. The data set is classed as functional.
The subject of data set [11] is Klebsiella pneumoniae. The data set is described as follows: Antimicrobial activity against Klebsiella pneumoniae ATCC 13883 after 20 hrs by microdilution assay. The data set is classed as functional.
The test system of another data set is Acinetobacter baumannii. In words: Antimicrobial activity against Acinetobacter baumannii […] after 20 hrs by microdilution assay. The data set is classed as functional.
A further data set concerns Pseudomonas aeruginosa. In words: Antimicrobial activity against Pseudomonas aeruginosa ATCC 27853 after 20 hrs by microdilution assay. The class given is functional.
Data set [12] relates to Klebsiella pneumoniae. In words: Antimicrobial activity against NDM-1 positive Klebsiella pneumoniae BAA-2146 after 20 hrs by microdilution assay. The class given is functional.
A short description of data set [13]: Cytotoxicity against HEK293 cells after 24 hrs by MTT assay. The class given is cell-based. The conditions noted are these: human. (Tetrazolium assays rely on reduction of a dye to a coloured formazan, in cell work by metabolically active cells.)
A short description of data set [14]: Cytotoxicity against human HepG2 cells after 24 hrs by MTT assay. The data set is classed as cell-based.
[15] abbreviates: Klebsiella pneumoniae, 700603, 20 h.

Take `CCCCCCCCCCC(NC(=O)C(CCCCCCCCCC)NC(=O)C(CCCCNC(=O)C(N)CCCCN)NC(=O)C(N)CCCCN)C(N)=O` (stereo unspecified) (H-KK(Lys)[ξGly(decyl)][ξGly(decyl)]-NH2; configuration not given here): the MIC in the data set on Staphylococcus aureus [1] amounted to 0.1 µM (≈ 0.0796 µg/mL); with Staphylococcus aureus [2], 0.06 µM (≈ 0.0478 µg/mL); in the data set on Staphylococcus aureus [3], 0.1 µM (≈ 0.0796 µg/mL); against Staphylococcus aureus [4] it was 0.1 µM (≈ 0.0796 µg/mL); against Staphylococcus aureus [5], 0.1 µM (≈ 0.0796 µg/mL); in the data set with Staphylococcus aureus [6] it was 0.1 µM (≈ 0.0796 µg/mL). Also, the MIC stood at 0.2 µM (≈ 0.159 µg/mL) with Staphylococcus aureus [7]; 0.1 µM (≈ 0.0796 µg/mL) in the data set with Staphylococcus aureus [8]; 0.1 µM (≈ 0.0796 µg/mL) with Staphylococcus aureus [9]; 0.2 µM (≈ 0.159 µg/mL) in the data set with Streptococcus pneumoniae; 0.2 µM (≈ 0.159 µg/mL) in the data set on Enterococcus faecalis; 0.2 µM (≈ 0.159 µg/mL) with Enterococcus faecium. Moreover, the MIC was 30 µM (≈ 23.9 µg/mL) in the data set on Escherichia coli (ATCC 25922, 20 h); over 30 µM against Klebsiella pneumoniae [10] (setting [15]); over 30 µM in the data set with Klebsiella pneumoniae [11] (ATCC 13883, 20 h); over 30 µM with Acinetobacter baumannii; 30 µM (≈ 23.9 µg/mL) in the data set on Pseudomonas aeruginosa (ATCC 27853, 20 h); over 30 µM against Klebsiella pneumoniae [12] (ATCC BAA-2146, 20 h). For the same molecule, the CC50 at 24 h in data set [13] is over 15 µM; in data set [14] it was at least 15 µM.

Consider COLISTIN, for which the MIC was 0.02 µM against Escherichia coli; 0.04 µM against Klebsiella pneumoniae [10]; 0.04 µM in the data set with Klebsiella pneumoniae [11]; 0.04 µM with Acinetobacter baumannii; 0.09 µM against Pseudomonas aeruginosa; 0.04 µM in the data set on Klebsiella pneumoniae [12] (ATCC BAA-2146).

As for `CCCCCCCCCCC(NC(=O)C(CCCCN)NC(C)=O)C(N)=O` (stereo unspecified), the MIC against Staphylococcus aureus [1], against Staphylococcus aureus [2], against Staphylococcus aureus [3], in the data set on Staphylococcus aureus [4], against Staphylococcus aureus [5] and against Staphylococcus aureus [6] was over 30 µM each time. In addition, the MIC against Staphylococcus aureus [7] is over 30 µM; in the data set with Staphylococcus aureus [8] it was over 30 µM; in the data set on Staphylococcus aureus [9] it was over 30 µM; against Streptococcus pneumoniae, over 30 µM; in the data set with Enterococcus faecalis, 30 µM (≈ 11.5 µg/mL); in the data set with Enterococcus faecium, over 30 µM. Further, the MIC with Escherichia coli (ATCC 25922, 20 h) is over 30 µM; against Klebsiella pneumoniae [10] (setting [15]), over 30 µM; against Klebsiella pneumoniae [11] (ATCC 13883, 20 h), over 30 µM; in the data set on Acinetobacter baumannii it was over 30 µM; in the data set on Pseudomonas aeruginosa (ATCC 27853, 20 h), over 30 µM; against Klebsiella pneumoniae [12] (ATCC BAA-2146, 20 h) it was over 30 µM. Moreover, the 50% cytotoxic concentration (CC50) at 24 h in data set [13] and in [14] was over 15 µM each time.

For orientation: MIC means the least concentration at which growth counts as inhibited. Read a low MIC as inhibition by little substance. A word on the CC50: it is the concentration giving 50% cytotoxicity.
